One test has as its target T1, SIRT2 (Homo sapiens, UniProt Q8IXJ6).
T1 sequence (Q8IXJ6 1-389): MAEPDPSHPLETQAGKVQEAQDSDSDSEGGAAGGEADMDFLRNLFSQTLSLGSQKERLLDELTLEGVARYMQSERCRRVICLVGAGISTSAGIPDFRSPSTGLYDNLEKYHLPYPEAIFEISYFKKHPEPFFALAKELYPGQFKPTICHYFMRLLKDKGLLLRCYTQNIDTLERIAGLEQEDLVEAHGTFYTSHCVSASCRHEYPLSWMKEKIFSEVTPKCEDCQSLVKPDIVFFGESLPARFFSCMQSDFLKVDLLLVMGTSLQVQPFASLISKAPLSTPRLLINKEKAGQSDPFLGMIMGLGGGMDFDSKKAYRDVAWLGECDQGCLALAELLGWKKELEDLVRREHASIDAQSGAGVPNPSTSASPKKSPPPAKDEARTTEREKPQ
Put plainly: SIRT2 deacetylation of Trp 5-mer peptide, OAADPr mass spec assay. In kind it is biochemical. Set-up: His-SIRT2(1-389).

In a further test the target is T2, SIRT1 (Homo sapiens, UniProt Q96EB6).
T2 sequence (Q96EB6 1-747): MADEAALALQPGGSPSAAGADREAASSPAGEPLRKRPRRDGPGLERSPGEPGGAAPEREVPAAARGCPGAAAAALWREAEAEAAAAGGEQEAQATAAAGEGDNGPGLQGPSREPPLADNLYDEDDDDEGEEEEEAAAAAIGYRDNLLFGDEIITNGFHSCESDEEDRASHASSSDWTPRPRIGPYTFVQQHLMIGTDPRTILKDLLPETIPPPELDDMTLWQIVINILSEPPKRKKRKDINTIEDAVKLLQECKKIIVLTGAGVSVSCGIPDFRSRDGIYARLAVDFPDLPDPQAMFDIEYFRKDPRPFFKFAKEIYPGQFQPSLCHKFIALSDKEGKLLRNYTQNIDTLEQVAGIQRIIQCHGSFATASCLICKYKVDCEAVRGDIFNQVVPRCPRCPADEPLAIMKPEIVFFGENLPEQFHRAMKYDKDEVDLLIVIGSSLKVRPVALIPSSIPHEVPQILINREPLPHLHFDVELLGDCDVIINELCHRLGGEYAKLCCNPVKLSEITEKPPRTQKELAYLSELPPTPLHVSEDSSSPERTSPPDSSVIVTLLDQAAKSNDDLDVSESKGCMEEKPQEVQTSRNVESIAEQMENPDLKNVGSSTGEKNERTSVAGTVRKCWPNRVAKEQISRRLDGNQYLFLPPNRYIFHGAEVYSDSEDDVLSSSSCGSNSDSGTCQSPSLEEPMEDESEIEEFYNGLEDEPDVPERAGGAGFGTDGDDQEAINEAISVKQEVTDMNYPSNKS
Put plainly: SIRT1 deacetylation of Trp 5-mer peptide, OAADPr mass spec assay.

The target of a further test is T3, SIRT3 (Homo sapiens, UniProt Q9NTG7).
T3 sequence (Q9NTG7 102-399): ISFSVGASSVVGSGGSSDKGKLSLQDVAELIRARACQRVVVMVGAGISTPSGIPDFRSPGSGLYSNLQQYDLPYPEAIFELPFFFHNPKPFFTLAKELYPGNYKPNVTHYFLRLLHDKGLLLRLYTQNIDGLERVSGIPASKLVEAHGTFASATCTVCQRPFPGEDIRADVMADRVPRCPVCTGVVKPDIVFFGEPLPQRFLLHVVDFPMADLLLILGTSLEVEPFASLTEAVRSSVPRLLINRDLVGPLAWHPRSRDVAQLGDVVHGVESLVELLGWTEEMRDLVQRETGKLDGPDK
Put plainly: SIRT3 deacetylation of Trp 5-mer peptide, OAADPr mass spec assay. To be noted: Trp SIRT3_IC50, Trp 5-mer peptide; class symbols.

Where [1] appears, read: Trp 5-mer peptide and NAD at KM, mean of at least three determinations, read-out: IC50 (μM) SIRT2.
The mark [2] stands for this setting: Trp 5-mer peptide, class symbols, read-out: Trp SIRT2_IC50.
The mark [3] stands for this setting: Trp SIRT1_IC50, Trp 5-mer peptide, class symbols.
Where [4] appears, read: read-out: IC50 (μM) SIRT1, Trp 5-mer peptide and NAD at KM, mean of at least three determinations.
[5] abbreviates: Trp SIRT2_IC50, Trp 5-mer peptide, class symbols.
The mark [6] stands for this setting: IC50 (μM) SIRT1, Trp 5-mer peptide and NAD at KM, mean of at least three determinations.

This note sets out measurements from patent publication US20160002273A1, “THIENO[3,2-D]PYRIMIDINE-6-CARBOXAMIDES AND ANALOGUES AS SIRTUIN MODULATORS” (GLAXOSMITHKLINE LLC, priority 2013, published 2016).

Each structure is given as a SMILES string. Where two headings read alike, the source gives them in different places.

Protocol for SIRT1: (§1) All assays were performed at room temperature in reaction buffer (50 mM HEPES, pH 7.5, 150 mM NaCl, 1 mM DTT, 0.05% BSA). […] To prepare the assays for analysis, 20 μL of reaction volume was mixed in 80 μL of 50:50 acetonitrile:methanol mixture. […] Peak data was integrated using RapidFire Integrator software (Agilent, Santa Clara, Calif.).
Protocol for SIRT3: as §1

Turning to `CC(C)(C)OC(=O)NCCC1CCN(c2ncnc3cc(C(N)=O)sc23)CC1` [Compound 15a, tert-butyl (2-(1-(6-carbamoylthieno[3,2-d]pyrimidin-4-yl)piperidin-4-yl)ethyl)carbamate], the IC50 on SIRT2 (setting [1]) is 0.005 µM; at SIRT2 (setting [2]), less than 1 µM; against SIRT1 (setting [3]) it was less than 1 µM; at SIRT1 (setting [4]), 0.017 µM.

Take `NCCC1CCN(c2ncnc3cc(C(N)=O)sc23)CC1` [Compound 16a, 4-(4-(2-aminoethyl)piperidin-1-yl)thieno[3,2-d]pyrimidine-6-carboxamide]: the IC50 was 0.11 µM on SIRT2 (setting [1]), less than 1 µM against SIRT2 (setting [5]), 1 to 10 µM on SIRT1 (setting [3]) and 1.6 µM on SIRT1 (setting [4]).

In the case of `CC(C)(C)OC(=O)c1ccc(C(=O)NCCC2CCN(c3ncnc4cc(C(N)=O)sc34)CC2)s1` [Compound 17, tert-butyl 5-((2-(1-(6-carbamoylthieno[3,2-d]pyrimidin-4-yl)piperidin-4-yl)ethyl)carbamoyl)thiophene-2-carboxylate], the IC50 against SIRT2 (IC50 (μM) SIRT2, Trp 5-mer peptide and NAD at KM, mean of at least three determinations) was 0.001 µM; on SIRT2 (setting [5]) it was less than 1 µM; at SIRT1 (setting [6]) it was 0.007 µM; against SIRT1 (setting [3]), less than 1 µM.

On to `NC(=O)c1cc2ncnc(N3CCC(CCNC(=O)c4ccc(C(=O)O)s4)CC3)c2s1` [Compound 18, 5-((2-(1-(6-carbamoylthieno[3,2-d]pyrimidin-4-yl)piperidin-4-yl)ethyl)carbamoyl)thiophene-2-carboxylic acid], for which the IC50 was 0.004 µM at SIRT2 (setting [1]), less than 1 µM on SIRT2 (setting [2]), less than 1 µM against SIRT1 (setting [3]) and 0.014 µM on SIRT1 (setting [4]).

Regarding `NC(=O)c1cc2ncnc(N3CCC(CCNC(=O)c4cccs4)CC3)c2s1` [Compound 19, 4-(4-(2-(thiophene-2-carboxamido)ethyl)piperidin-1-yl)thieno[3,2-d]pyrimidine-6-carboxamide], the IC50 on SIRT2 (setting [1]) is 0.007 µM; on SIRT2 (setting [2]) it was less than 1 µM; at SIRT1 (setting [6]), 0.006 µM; on SIRT1 (setting [3]), less than 1 µM.

`CC(=O)NCCC1CCN(c2ncnc3cc(C(N)=O)sc23)CC1` [Compound 20]: the IC50 is 0.023 µM at SIRT2 (setting [1]), less than 1 µM at SIRT2 (setting [2]), less than 1 µM against SIRT1 (setting [3]) and 0.11 µM on SIRT1 (setting [4]).

Turning to `CC(=O)NCCN1CCN(c2ncnc3cc(C(N)=O)sc23)CC1` [Compound 24], the IC50 is 0.17 µM at SIRT2 (setting [1]), less than 1 µM at SIRT2 (setting [2]), 1 to 10 µM against SIRT1 (setting [3]) and 1.6 µM at SIRT1 (setting [4]).

In the case of `CC(=S)NCCN1CCN(c2ncnc3cc(C(N)=O)sc23)CC1` [Compound 26], the IC50 on SIRT2 (setting [1]) was 0.13 µM; at SIRT2 (setting [2]) it was less than 1 µM; against SIRT1 (setting [3]), less than 1 µM; at SIRT1 (setting [4]) it was 0.49 µM.

Turning to `CC(C)(C)C(=O)NCC1CCN(c2ncnc3cc(C(N)=O)sc23)CC1` [Compound 27, 4-(4-(pivalamidomethyl)piperidin-1-yl)thieno[3,2-d]pyrimidine-6-carboxamide], the IC50 at SIRT2 (setting [1]) is 0.74 µM; on SIRT2 (setting [2]), less than 1 µM; on SIRT1 (setting [3]), 1 to 10 µM; on SIRT1 (setting [4]), 4.3 µM.

Regarding `CC(C)(C)C(=O)NCCCC1CCN(c2ncnc3cc(C(N)=O)sc23)CC1` [Compound 29, 4-(4-(3-pivalamidopropyl)piperidin-1-yl)thieno[3,2-d]pyrimidine-6-carboxamide], the IC50 on SIRT2 (setting [1]) is 0.016 µM; on SIRT2 (setting [2]), less than 1 µM; on SIRT1 (setting [3]), less than 1 µM; on SIRT1 (setting [4]), 0.042 µM.

As for `CC(C)(C)C(=O)NCCN1CCN(c2ncnc3cc(C(N)=O)sc23)CC1` [Compound 30, 4-(4-(2-pivalamidoethyl)piperazin-1-yl)thieno[3,2-d]pyrimidine-6-carboxamide], the IC50 on SIRT2 (setting [1]) is 0.017 µM; at SIRT2 (setting [2]), less than 1 µM; at SIRT1 (setting [3]) it was less than 1 µM; at SIRT1 (setting [4]), 0.12 µM.

With `CS(=O)(=O)NCCC1CCN(c2ncnc3cc(C(N)=O)sc23)CC1` [Compound 31], the IC50 is 0.001 µM at SIRT2 (setting [1]) and less than 1 µM on SIRT2 (setting [2]).

Regarding `CS(=O)(=O)NCCN1CCN(c2ncnc3cc(C(N)=O)sc23)CC1` [Compound 32, 4-(4-(2-(methylsulfonamido)ethyl)piperazin-1-yl)thieno[3,2-d]pyrimidine-6-carboxamide 2,2,2-trifluoroacetate], the IC50 on SIRT2 (setting [1]) was 0.053 µM; at SIRT2 (setting [2]) it was less than 1 µM; against SIRT1 (setting [3]), less than 1 µM; on SIRT1 (setting [4]) it was 0.38 µM.

Regarding `NC(=O)c1cc2ncnc(N3CCC(CN4CCCC4)CC3)c2s1` [Compound 33], the IC50 at SIRT2 (setting [1]) was 0.22 µM; on SIRT2 (setting [2]) it was less than 1 µM; against SIRT1 (setting [3]) it was less than 1 µM; at SIRT1 (setting [4]), 0.73 µM.

As to `NC(=O)c1cc2ncnc(N3CCC(CCN4CCCC4)CC3)c2s1` [Compound 34], the IC50 at SIRT2 (setting [1]) was 0.067 µM; on SIRT2 (setting [2]) it was less than 1 µM; against SIRT1 (setting [3]) it was less than 1 µM; on SIRT1 (setting [4]), 0.11 µM.

As to `NC(=O)c1cc2ncnc(N3CCN(CCN4CCCC4)CC3)c2s1` [Compound 35, 4-(4-(2-(Pyrrolidin-1-yl)ethyl)piperazin-1-yl)thieno[3,2-d]pyrimidine-6-carboxamide bis(2,2,2-trifluoroacetate)], the IC50 on SIRT2 (setting [1]) was 0.029 µM; on SIRT2 (setting [2]), less than 1 µM; at SIRT1 (setting [3]), less than 1 µM; at SIRT1 (setting [4]), 0.053 µM.

`CC(C)(C)C(=O)NCCC1CCN(c2ncnc3cc(C(N)=O)oc23)CC1` [Compound 36, 4-(4-(2-pivalamidoethyl)piperidin-1-yl)furo[3,2-d]pyrimidine-6-carboxamide]: the IC50 was 0.15 µM at SIRT2 (setting [1]), less than 1 µM on SIRT2 (setting [2]), less than 1 µM at SIRT1 (setting [3]) and 0.47 µM on SIRT1 (setting [4]).

On to `CC(C)(C)C(=O)NCCC1CCN(c2ccnc3cc(C(N)=O)sc23)CC1` [Compound 37, 7-(4-(2-pivalamidoethyl)piperidin-1-yl)thieno[3,2-b]pyridine-2-carboxamide], for which the IC50 on SIRT2 (setting [1]) is 0.028 µM; at SIRT2 (setting [2]) it was less than 1 µM; at SIRT1 (setting [3]) it was less than 1 µM; at SIRT1 (setting [4]), 0.059 µM.

Take `Cc1c(C(N)=O)sc2c(N3CCC(CCNC(=O)C(C)(C)C)CC3)ncnc12` [Compound 39, 7-methyl-4-(4-(2-pivalamidoethyl)piperidin-1-yl)thieno[3,2-d]pyrimidine-6-carboxamide]: the IC50 is 0.13 µM on SIRT2 (setting [1]), less than 1 µM at SIRT2 (setting [2]), less than 1 µM on SIRT1 (setting [3]) and 0.18 µM at SIRT1 (setting [4]).

`CC(C)(C)C(=O)NCCC1CCN(c2ncnc3cc(C(=O)O)sc23)CC1` [Compound 40, 4-(4-(2-Pivalamidoethyl)piperidin-1-yl)thieno[3,2-d]pyrimidine-6-carboxylic acid 2,2,2-trifluoroacetate]: the IC50 on SIRT2 (setting [2]) and on SIRT1 (setting [3]) was greater than 10 µM throughout. Moreover, at SIRT2 (at the concentrations tested), the “SIRT2 inhibition, in words” value was “no measurable”. For the same molecule, the “SIRT1 inhibition, in words” value on SIRT1 (at the concentrations tested) is recorded as “no measurable”.

With `CC(C)(C)OC(=O)NCC1CCN(c2ncnc3cc(C(N)=O)sc23)CC1` [Compound 57, tert-butyl ((1-(6-carbamoylthieno[3,2-d]pyrimidin-4-yl)piperidin-4-yl)methyl)carbamate], the IC50 was greater than 10000 nM against SIRT3 and 1 to 10 µM on SIRT2 (setting [2]).
